Results published in patent US10966951B2, “Compositions and methods for lowering triglycerides in a subject having reduced kidney function” (Amarin Pharmaceuticals Ireland Limited, priority 2017, dated 2021).

Tests used:
Assay type in all cases: in vivo, human
[1] = Essential fatty acid parameters in plasma, 6-week AAMI study (Example 2)
Experimental: A single-center, 6-week, double-blind, randomized, parallel-group, placebo-controlled, dose-ranging pilot study was performed to evaluate the efficacy, tolerability, and safety of >96% E-EPA in subjects with subjective and objective memory impairment according to generally accepted criteria for Age-Associated Memory Impairment (“AAMI”). The primary objective of the study was to determine the effect of >96% E-EPA 1 g, 2 g, and 4 g daily, compared to placebo, on cognitive performance in subjects with AAMI.
Ninety-four subjects were randomized into one of six groups: 1 g E-EPA daily (n=23), 2 g E-EPA daily (n=24), 4 g E-EPA daily (n=24), 1 g placebo daily (n=7), 2 g placebo daily (n=8), and 4 g placebo daily (n=8). E-EPA was provided as 500 mg soft gel capsules containing >96% E-EPA and 0.2% dl-α-tocopherol as an antioxidant. Placebo capsules contained 467 mg of liquid paraffin and 0.2% dl-α-tocopherol. Ninety-one subjects completed the study. Two subjects in the 2 g E-EPA group and one subject in the 2 g placebo group discontinued the study.
Blood samples (10 mL) were collected at Visit 1 (screening) and at Visits 4, 5, and 6. Analysis was performed by MSR Lipid Analysis, Scottish Crop Research Institute, Dundee, UK. The screening sample acted as baseline for the EFA measurements. Lipid was extracted from plasma, serum, and RBC suspensions and converted into fatty acid methyl esters which were analyzed by gas chromatography to give fatty acid profiles as micrograms fatty acid per gram of sample ([…]) and normalized area percent.
RBC and plasma EFA data were collected at baseline, Day 14, 28, and 42 and summarized by visit for each treatment group. Change from baseline and percent change from baseline were also summarized. ANCOVA comparison of E-EPA dose groups and E-EPA versus placebo was performed.

[2] = tested on: subjects with Age-Associated Memory Impairment; assay: Safety and tolerability, 6-week AAMI study (Example 2)
Experimental: Ninety-four subjects were randomized into one of six groups: 1 g E-EPA daily (n=23), 2 g E-EPA daily (n=24), 4 g E-EPA daily (n=24), 1 g placebo daily (n=7), 2 g placebo daily (n=8), and 4 g placebo daily (n=8).
All randomized subjects that received at least 1 dose of study medication were included in the Safety Population.
Safety evaluations were based on the safety population. Safety and tolerability were assessed in terms of AEs, vital signs, 12-lead ECG, clinical laboratory data, medical history, and study drug compliance. Safety and tolerability data were presented by treatment group.

[3] = tested on: patients with chronic kidney disease (eGFR<60 mL/min/1.73 m^2); assay: Renal parameters and safety in ANCHOR patients with CKD (Example 7)
Experimental: CVD-related (e.g., atherogenic) parameters were analyzed in a post-hoc study of 55 patients from the multi-center, placebo-controlled, randomized double-blind, 12-week study described in Example 1. These 55 patients have chronic kidney disease (e.g., eGFR<60 mL/min/1.73 m^2 for ≥3 months). There was no lower limit of eGFR specified.
19 patients were randomized to E-EPA and 36 patients were randomized to placebo. One patient in each group discontinued and was excluded from efficacy analyses (but not safety analyses). EPA levels in plasma and RBC were measured in 23 of the 55 patients. These measurements were taken on 7 of the patients randomized to E-EPA and on 16 of the patients that were randomized to the placebo.
The median difference in percent change from baseline between 4 g/day of E-EPA and placebo for the primary efficacy variable and additional assessments were estimated using the Hodges-Lehmann method (P values from the Wilcoxon rank-sum test for treatment comparisons). Using the Hodges-Lehmann method, departures from normal distribution were observed; for normally distributed parameters, an analysis of covariance model was used with least squares (LS) means and standard errors (SE). Missing values were imputed using the last-observation-carried-forward method. For all post hoc analyses, the alpha for statistical significance was 0.05.

With CC/C=C\C/C=C\C/C=C\C/C=C\C/C=C\CCCC(=O)OCC [E-EPA, ethyl eicosapentaenoate] the “EPA, DPAn-3, and EPA/AA ratio values from baseline to Day 42” value ([1]; plasma and RBC, 1, 2, and 4 g treatment groups) was “increased substantially”, the “AA Mean change from Baseline, Mean (SD)” value ([1]; plasma, 1 g daily, Day 14) was −9.7 (22.20) μg/g and the “DHA Mean change from Baseline, Mean (SD)” value ([1]; plasma, 1 g daily, Day 14) was −6.4 (13.30) μg/g. The “EPA/AA Mean change from Baseline, Mean (SD)” value (from here on “EPA/AA Mean change … (SD)”) ([1]; plasma, 1 g daily, Day 14) was 0.3 (0.4), the “DHA Mean change from Baseline, Mean (SD)” value ([1]; plasma, 1 g daily, Day 28) was −6.6 (15.53) μg/g and the “EPA/AA Mean change … (SD)” value ([1]; plasma, 1 g daily, Day 28) was 0.3 (0.20). For the same molecule, the “AA Mean change from Baseline, Mean (SD)” value ([1]; plasma, 1 g daily, Day 42) was −8.7 (31.35) μg/g, the “DGLA Mean change from Baseline, Mean (SD)” value ([1]; plasma, 1 g daily, Day 42) was −9.4 (9.41) μg/g and the “DHA Mean change from Baseline, Mean (SD)” value ([1]; plasma, 1 g daily, Day 42) was −5.4 (18.17) μg/g. The “EPA/AA Mean change … (SD)” value ([1]; plasma, 1 g daily, Day 42) was 0.3 (0.24), the “EPA/AA Baseline Mean (SD)” value ([1]; plasma, 1 g daily) was 0.2 (0.14) and the “AA LS Mean, 1 g versus 4 g” value ([1]; plasma, 1 g versus 4 g) was 4.2 µg/g. The “DGLA LS Mean, 1 g versus 4 g” value ([1]; plasma, 1 g versus 4 g) was 3.7 µg/g, the “DHA LS Mean, 1 g versus 4 g” value ([1]; plasma, 1 g versus 4 g) was -0.8 µg/g and the “EPA/AA LS Mean, 1 g versus 4 g” value ([1]; plasma, 1 g versus 4 g) was −0.66. For the same molecule, the “DHA Mean change from Baseline, Mean (SD)” value ([1]; plasma, 2 g daily, Day 14) was −5.4 (14.29) μg/g, the “EPA/AA Mean change … (SD)” value ([1]; plasma, 2 g daily, Day 14) was 0.6 (0.23) and the “DHA Mean change from Baseline, Mean (SD)” value ([1]; plasma, 2 g daily, Day 28) was −8.1 (15.82) μg/g. The “EPA/AA Mean change … (SD)” value ([1]; plasma, 2 g daily, Day 28) was 0.8 (0.35), the “DHA Mean change from Baseline, Mean (SD)” value ([1]; plasma, 2 g daily, Day 42) was −6.0 (16.69) μg/g and the “EPA/AA Mean change … (SD)” value ([1]; plasma, 2 g daily, Day 42) was 0.7 (0.29). For the same molecule, the “EPA/AA Baseline Mean (SD)” value ([1]; plasma, 2 g daily) was 0.2 (0.12), the “DGLA LS Mean, 2 g versus 4 g” value ([1]; plasma, 2 g versus 4 g) was 2.5 µg/g and the “DHA LS Mean, 2 g versus 4 g” value ([1]; plasma, 2 g versus 4 g) was 1.5 µg/g. For the same molecule, the “EPA/AA LS Mean, 2 g versus 4 g” value ([1]; plasma, 2 g versus 4 g) was −0.41, the “EPA/AA Mean change … (SD)” value ([1]; plasma, 4 g daily, Day 14) was 1.1 (0.28) and the “EPA/AA Mean change … (SD)” value ([1]; plasma, 4 g daily, Day 28) was 1.3 (0.42). The “EPA/AA Mean change … (SD)” value ([1]; plasma, 4 g daily, Day 42) was 1.3 (0.45), the “EPA/AA Baseline Mean (SD)” value ([1]; plasma, 4 g daily) was 0.2 (0.07) and the “subjects with nausea Possibly Related to the study drug” value (“subjects with nausea Possibly Related” below) ([2]; 1 g cohort) was “two”. The “nausea Probably Related to the study drug” value ([2]; 1 g, one subject) was “experienced nausea that was Probably Related to the study drug”, the “subjects with nausea Possibly Related” value ([2]; 2 g cohort) was “one” and the SAE reported ([2]; 2 g treatment group) was “One SAE”. The “subjects discontinued due to TEAEs” value ([2]; 2 g treatment group) was 2 subjects, the “relatedness of the SAE (worsening epigastric chest pain)” value ([2]; 2 g, one subject) was “unrelated to the study drug” and the “subjects with nausea Possibly Related” value ([2]; 4 g cohort) was “two”. The “diarrhea Probably Related to the study drug” value ([2]; 4 g, one subject) was “experienced diarrhea that was Probably Related to the study drug”, the “TEAEs Definitely Related to the study drug” value ([2]; all groups) was “No TEAEs were Definitely Related” and the “nausea, nasopharyngitis, and arthralgia” value ([3]; 4 g/day) was “not reported by any patients”. The “eGFR median difference in change from baseline compared with placebo” value ([3]; 4 g/day vs placebo, P=0.1983) was −7.8%, the “serum creatinine median difference in change from baseline compared with placebo” value ([3]; 4 g/day vs placebo, P=0.1983) was 6.5% and the “BUN median difference in change from baseline compared with placebo” value ([3]; 4 g/day vs placebo, P=0.5291) was 5.5%. The “BUN median difference in change from baseline compared with placebo” value ([3]; 4 g/day vs placebo, P=0.5471) was 1.0 mg/dL, the patients reporting diarrhea ([3]; 4 g/day, 2 patients) was 10.5% and the “patients reporting TEAE” value ([3]; 4 g/day, 11 of 19 patients) was 57.9%. For the same molecule, the “serum albumin change from baseline” value ([3]; 4 g/day, 12-week study) was “no significant median changes from baseline”, the “BUN, median (IQR), baseline” value ([3]; 4 g/day, baseline) was 24.5 (12.0) mg/dL and the “eGFR, median (IQR), baseline” value ([3]; 4 g/day, baseline) was 55.0 (13.8) mL/min/1.73 m^2. The “serum creatinine, median (IQR), baseline” value ([3]; 4 g/day, baseline) was 1.2 (0.3) mg/dL, the “changes in serum creatinine, blood urea nitrogen (BUN), or eGFR from baseline to week 12” value ([3]; 4 g/day, compared to placebo control) was “did not produce significant changes” and the “BUN, median (IQR), week 12” value ([3]; 4 g/day, week 12) was 22.5 (11.0) mg/dL. For the same molecule, the “eGFR, median (IQR), week 12” value ([3]; 4 g/day, week 12) was 56.0 (12.9) mL/min/1.73 m^2 and the “serum creatinine, median (IQR), week 12” value ([3]; 4 g/day, week 12) was 1.2 (0.4) mg/dL.
